According to ChEMBL document CHEMBL4665642, “Anticancer profile of newly synthesized BRAF inhibitors possess 5-(pyrimidin-4-yl)imidazo[2,1-b]thiazole scaffold” (Bioorg Med Chem, 2019):

Assays:
HL-60(TB) = test: Cytotoxicity against human HL-60(TB) cells assessed as cell viability at 10 uM incubated for 48 hrs by sulforhodamine B assay relative to control; type: functional; details: read-out: Activity
OVCAR-8 = test: Cytotoxicity against human OVCAR-8 cells assessed as cell viability at 10 uM incubated for 48 hrs by sulforhodamine B assay relative to control; type: functional; details: read-out: Activity
U-251 = test: Cytotoxicity against human U-251 cells assessed as cell viability at 10 uM incubated for 48 hrs by sulforhodamine B assay relative to control; type: functional; details: read-out: Activity
SF-295 = test: Cytotoxicity against human SF-295 cells assessed as cell viability at 10 uM incubated for 48 hrs by sulforhodamine B assay relative to control; type: functional; details: read-out: Activity
TK-10 = test: Cytotoxicity against human TK-10 cells assessed as cell viability at 10 uM incubated for 48 hrs by sulforhodamine B assay relative to control; type: functional; details: read-out: Activity
OVCAR-4 = test: Cytotoxicity against human OVCAR-4 cells assessed as cell viability at 10 uM incubated for 48 hrs by sulforhodamine B assay relative to control; type: functional; details: read-out: Activity
OVCAR-3 = test: Cytotoxicity against human OVCAR-3 cells assessed as cell viability at 10 uM incubated for 48 hrs by sulforhodamine B assay relative to control; type: functional; details: read-out: Activity
786-0 = test: Cytotoxicity against human 786-0 cells assessed as cell viability at 10 uM incubated for 48 hrs by sulforhodamine B assay relative to control; type: functional; details: read-out: Activity
Malme-3M = test: Cytotoxicity against human Malme-3M cells assessed as cell viability at 10 uM incubated for 48 hrs by sulforhodamine B assay relative to control; type: functional; details: read-out: Activity
BT-549 = test: Cytotoxicity against human BT-549 cells assessed as cell viability at 10 uM incubated for 48 hrs by sulforhodamine B assay relative to control; type: functional; details: read-out: Activity
SF-539 = test: Cytotoxicity against human SF-539 cells assessed as cell viability at 10 uM incubated for 48 hrs by sulforhodamine B assay relative to control; type: functional; details: read-out: Activity
SK-MEL-28 = test: Cytotoxicity against human SK-MEL-28 cells assessed as reduction in cell viability by MTT assay; type: functional, cell-based
RXF 393 = test: Cytotoxicity against human RXF 393 cells assessed as cell viability at 10 uM incubated for 48 hrs by sulforhodamine B assay relative to control; type: functional; details: read-out: Activity
MDA-MB-435 = test: Cytotoxicity against human MDA-MB-435 cells assessed as cell viability at 10 uM incubated for 48 hrs by sulforhodamine B assay relative to control; type: functional; details: read-out: Activity
Hs-578T = test: Cytotoxicity against human HS-578T cells assessed as cell viability at 10 uM incubated for 48 hrs by sulforhodamine B assay relative to control; type: functional; details: read-out: Activity
NCI/ADR-RES = test: Cytotoxicity against human NCI/ADR-RES cells assessed as cell viability at 10 uM incubated for 48 hrs by sulforhodamine B assay relative to control; type: functional; details: read-out: Activity
M14 = test: Cytotoxicity against human M14 cells assessed as cell viability at 10 uM incubated for 48 hrs by sulforhodamine B assay relative to control; type: functional; details: read-out: Activity
A-375 = test: Cytotoxicity against human A-375 cells assessed as reduction in cell viability by MTT assay; type: functional, cell-based
PC-3 = test: Cytotoxicity against human PC-3 cells assessed as cell viability at 10 uM incubated for 48 hrs by sulforhodamine B assay relative to control; type: functional; details: read-out: Activity
OVCAR-5 = test: Cytotoxicity against human OVCAR-5 cells assessed as cell viability at 10 uM incubated for 48 hrs by sulforhodamine B assay relative to control; type: functional; details: read-out: Activity
[1] = biological target: Serine/threonine-protein kinase B-raf (Homo sapiens, UniProt P15056, V600E); test: Inhibition of human BRAF V600E mutant using MEK1 as substrate by […] assay
Serine/threonine-protein kinase B-raf (Homo sapiens, UniProt P15056, V600E), sequence (P15056 2-766 V600E limits assumed): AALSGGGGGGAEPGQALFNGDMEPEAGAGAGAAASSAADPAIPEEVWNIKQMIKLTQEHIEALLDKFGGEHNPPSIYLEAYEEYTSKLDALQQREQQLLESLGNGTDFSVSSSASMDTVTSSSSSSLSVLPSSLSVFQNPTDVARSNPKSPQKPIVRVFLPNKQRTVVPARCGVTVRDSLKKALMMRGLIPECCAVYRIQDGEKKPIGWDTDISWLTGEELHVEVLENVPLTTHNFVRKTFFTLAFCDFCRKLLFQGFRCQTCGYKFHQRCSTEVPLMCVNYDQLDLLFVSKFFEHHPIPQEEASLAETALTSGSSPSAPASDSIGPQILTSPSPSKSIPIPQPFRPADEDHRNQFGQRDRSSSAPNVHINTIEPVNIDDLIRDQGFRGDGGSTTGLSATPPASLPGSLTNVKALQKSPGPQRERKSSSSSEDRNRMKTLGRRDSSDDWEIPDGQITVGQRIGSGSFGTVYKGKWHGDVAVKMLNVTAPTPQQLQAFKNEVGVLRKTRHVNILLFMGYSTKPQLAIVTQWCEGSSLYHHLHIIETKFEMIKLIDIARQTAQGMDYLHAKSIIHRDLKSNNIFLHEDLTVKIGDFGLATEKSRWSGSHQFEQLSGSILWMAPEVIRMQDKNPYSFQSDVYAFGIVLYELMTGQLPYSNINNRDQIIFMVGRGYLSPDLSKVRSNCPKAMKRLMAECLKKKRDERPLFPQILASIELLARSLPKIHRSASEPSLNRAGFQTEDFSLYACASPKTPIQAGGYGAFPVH

[2] = biological target: RAF proto-oncogene serine/threonine-protein kinase (Homo sapiens, UniProt P04049); test: Inhibition of human CRAF using MEK1 as substrate by [gamma-33P]-ATP assay
RAF proto-oncogene serine/threonine-protein kinase, sequence (P04049 whole entry): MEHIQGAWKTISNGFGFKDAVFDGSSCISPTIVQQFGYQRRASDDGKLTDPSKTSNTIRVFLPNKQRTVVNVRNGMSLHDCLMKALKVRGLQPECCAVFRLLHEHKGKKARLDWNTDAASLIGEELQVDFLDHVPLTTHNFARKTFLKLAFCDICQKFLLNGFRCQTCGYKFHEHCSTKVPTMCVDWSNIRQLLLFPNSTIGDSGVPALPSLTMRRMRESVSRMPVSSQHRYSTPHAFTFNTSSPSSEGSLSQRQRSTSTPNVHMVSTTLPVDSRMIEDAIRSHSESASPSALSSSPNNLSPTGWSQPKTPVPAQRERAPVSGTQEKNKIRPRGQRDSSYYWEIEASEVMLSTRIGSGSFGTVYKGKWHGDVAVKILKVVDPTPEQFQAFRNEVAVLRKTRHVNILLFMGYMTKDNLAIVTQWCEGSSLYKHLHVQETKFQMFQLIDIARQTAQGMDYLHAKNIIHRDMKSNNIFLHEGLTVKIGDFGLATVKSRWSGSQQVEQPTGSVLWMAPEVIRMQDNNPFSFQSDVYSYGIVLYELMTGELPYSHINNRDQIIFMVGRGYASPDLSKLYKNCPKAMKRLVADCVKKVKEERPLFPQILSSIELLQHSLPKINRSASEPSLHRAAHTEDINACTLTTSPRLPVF

[3] = biological target: Serine/threonine-protein kinase B-raf (Homo sapiens, UniProt P15056); test: Inhibition of human BRAF using MEK1 as substrate by […] assay
Serine/threonine-protein kinase B-raf (Homo sapiens, UniProt P15056), sequence (P15056 whole entry): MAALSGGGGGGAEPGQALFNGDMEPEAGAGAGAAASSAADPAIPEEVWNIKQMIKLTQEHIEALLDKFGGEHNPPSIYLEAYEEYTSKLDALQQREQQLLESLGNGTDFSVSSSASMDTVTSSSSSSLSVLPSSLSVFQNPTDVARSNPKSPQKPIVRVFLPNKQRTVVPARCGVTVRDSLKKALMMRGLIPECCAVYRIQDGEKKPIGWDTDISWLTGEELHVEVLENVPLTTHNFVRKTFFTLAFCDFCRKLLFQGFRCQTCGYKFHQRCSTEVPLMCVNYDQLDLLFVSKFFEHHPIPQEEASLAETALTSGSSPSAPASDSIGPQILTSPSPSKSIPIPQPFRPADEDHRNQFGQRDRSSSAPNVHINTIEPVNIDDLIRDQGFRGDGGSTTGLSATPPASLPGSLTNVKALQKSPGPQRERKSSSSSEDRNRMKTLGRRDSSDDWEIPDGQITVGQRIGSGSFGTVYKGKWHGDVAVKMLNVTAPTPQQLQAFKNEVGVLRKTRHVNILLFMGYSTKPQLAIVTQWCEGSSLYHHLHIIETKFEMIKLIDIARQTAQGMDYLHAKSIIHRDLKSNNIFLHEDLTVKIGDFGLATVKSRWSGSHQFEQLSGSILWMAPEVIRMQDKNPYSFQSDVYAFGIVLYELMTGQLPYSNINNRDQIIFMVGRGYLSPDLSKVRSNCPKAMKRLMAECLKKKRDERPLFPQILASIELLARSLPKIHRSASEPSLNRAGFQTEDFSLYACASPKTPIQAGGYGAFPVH

Compound	viability at 10 µM (HL-60(TB)) [%]	viability at 10 µM (OVCAR-8) [%]	viability at 10 µM (U-251) [%]	viability at 10 µM (SF-295) [%]	viability at 10 µM (TK-10) [%]	viability at 10 µM (OVCAR-4) [%]	viability at 10 µM (OVCAR-3) [%]	viability at 10 µM (786-0) [%]	viability at 10 µM (Malme-3M) [%]	viability at 10 µM (BT-549) [%]	viability at 10 µM (SF-539) [%]	IC50 (SK-MEL-28) [µM]	viability at 10 µM (RXF 393) [%]	viability at 10 µM (MDA-MB-435) [%]	viability at 10 µM (Hs-578T) [%]	viability at 10 µM (NCI/ADR-RES) [%]	viability at 10 µM (M14) [%]	IC50 (A-375) [µM]	viability at 10 µM (PC-3) [%]	viability at 10 µM (OVCAR-5) [%]	further results
O=S(=O)(NCCNc1nccc(-c2c(-c3cccc(F)c3)nc3sccn23)n1)c1ccc(Cl)cc1	96	53.6	55.2	63.7	88.5	63.6	65.4	51.3	82.7	71.3	82.5	18.6	69	26.3	72.5	67.7	56.6	18.6	56.9	93.3	
O=C(NCCNc1nccc(-c2c(-c3cccc(F)c3)nc3sccn23)n1)c1ccc(Cl)cc1	99.2	55.1	66.1	73.8	75.4	77.9	75.7	54.5	34.9	75.9	90	8.16	72.9	32	74.8	74.3	38.8	2.57	72.5	88.3	IC50 [1]: 0.0272 µM; IC50 [2]: 0.12 µM; IC50 [3]: 0.105 µM
O=S(=O)(NCCNc1nccc(-c2c(-c3cccc(F)c3)nc3sccn23)n1)c1cccc(F)c1	101	60.1	60.7	80.6	88	64.8	76.7	63.9	108	81.5	95.6	18.3	80.2	41.9	78.3	80.3	69.4	14.9	67.2	100	
O=S(=O)(NCCNc1nccc(-c2c(-c3cccc(F)c3)nc3sccn23)n1)c1ccc(Br)cc1	90.5	45.5	53.4	58.7	68.8	47	62.4	50.6	71.1	63.2	76.4	13.5	72.7	21.3	63.6	61.8	52.3	13.5	51	83.6	
O=S(=O)(NCCNc1nccc(-c2c(-c3cccc(F)c3)nc3sccn23)n1)c1ccc(C(F)(F)F)cc1	121	84.1	89.8	107	98.2	85.4	92.4	82.1	115	79.3	103	8.45	92.1	71.2	82.6	88.8	91.4	7.44	57	122	IC50 [1]: 0.0223 µM; IC50 [2]: 0.0884 µM; IC50 [3]: 0.0852 µM
O=S(=O)(NCCNc1nccc(-c2c(-c3cccc(F)c3)nc3sccn23)n1)c1ccc(F)cc1	95.1	47.3	58.4	67.5	80.4	59.3	67.2	58.7	81.1	78.6	83.2	9.45	68.9	31.5	68	66.7	67.8	9.45	51.4	92.5	
O=S(=O)(NCCCNc1nccc(-c2c(-c3cccc(F)c3)nc3sccn23)n1)c1ccc(F)cc1	103	49.8	90.6	92.7	99.7	65.7	83.5	73.6	102	79.9	115	> 20	85	50.4	90.1	60	59.4	14.5	58.9	130	
O=C(NCCCNc1nccc(-c2c(-c3cccc(F)c3)nc3sccn23)n1)c1ccc(F)cc1	110	68.4	90.6	97.2	95.9	81.6	74.1	62.5	140	85.2	99.4	> 20	77.3	72.6	83.2	78.8	85.3	14.9	76.2	141	
